Data as given in publication PMC11267533, “Ligandability at the Membrane Interface of GPx4 Revealed through a Reverse Micelle Fragment Screening Platform” (JACS Au, 2024).

Biological target: T1, GPx4 bound to DPC micelles (Homo sapiens, UniProt P36969, U73G)
T1 construct: Truncated U46G-GPx4 with a TEV cleavable poly-histidine tag was inserted into vector; poly-histidine tag with TEV cleavage site; host or cells: BL21 (DE3) E. coli
T1 sequence (P36969 1-170 isoform P36969-2 U46G): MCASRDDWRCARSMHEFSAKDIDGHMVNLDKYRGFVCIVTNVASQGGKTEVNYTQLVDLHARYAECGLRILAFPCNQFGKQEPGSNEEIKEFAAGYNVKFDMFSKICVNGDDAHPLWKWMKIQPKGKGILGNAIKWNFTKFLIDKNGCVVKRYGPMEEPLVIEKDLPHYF
Test: 15N-HSQC CSP experiment with GPx4 bound to DPC micelles
Type: binding
Settings: 400 μM analogue, 0.4% DMSO
Description: To investigate whether or not these fragments could be built upon and progress to higher affinity binders and potentially inhibitors, a secondary screening approach was used to find analogues of the original fragments. A fragment growing approach was followed due to the high success rate of improving fragment hits.[61],[62] Fragment growing improves binding affinity, or other properties, with the addition of different substitutions and/or expansions.[20] Commercially available analogues of fragments 1 and 5 were found by searching the ChemBridge (San Diego, CA) catalog for analogues with a 60% similarity for fragment 1 and a 70% similarity for fragment 5. A subset of analogues for each fragment was purchased and tested. These two fragments were the main focus for fragment progression due to their observed ability to partition into bilayers and bind to inhibitory regions of membrane-bound GPx4. Fragment 6 was not investigated further since it resides mainly in the water core of the mmRM model, and while interesting, it falls outside of our focus for this study. While all the five selected fragment 1 analogues produced reasonable CSPs in the membrane interface of GPx4; none produced titration curves that indicated enhanced binding (Table S1). […]

Compound: O=c1oc2c(-c3ccc(Cl)c(Cl)c3)cc(O)cc2s1 [Analog 5.5]
- CSPs of GPx4 bound to DPC micelles: reasonable CSPs were observed
